From article PMC12616682, “Identification of a Highly Cooperative PROTAC Degrader Targeting GTP-Loaded KRAS(On) Alleles” (Journal of the American Chemical Society, 2025)
pIC50: −log10 of the molar value. Entries after “also recorded” stand apart in the source; their conditions may differ. Like-named read-outs stand apart in the source and are kept apart here.

Assays:
Cal-62 cells [1] = test: Whole cell proteomics MS analysis of Cal-62 cells; type: cell-based, human; settings: 1 µM, 6 h, FDR<0.05
Calu-6 cells = test: CellTiter-Glo anti-proliferation, Calu-6; type: cell-based, human; settings: Calu-6 (Q61K)
[2] = molecular target: T1, HiBiT-KRAS^G12D in GP5d cells (Homo sapiens, UniProt P01116, G12D); test: HiBiT degradation assay, HiBiT-KRAS^G12D GP5d cells; type: cell-based; settings: Gp5D (HiBit-G12D)
T1 construct: host or cells: GP5d HiBiT KRAS G12D

KRAS^G12R in KP-2 cells = molecular target: T2, KRAS^G12R in KP-2 cells (Homo sapiens, UniProt P01116, G12R); test: Endogenous KRAS degradation by Western blot in KP-2 cells; type: cell-based; settings: KP-2 (G12R)
T2 construct: host or cells: KP-2

A375 cells = test: CellTiter-Glo anti-proliferation, A375 (KRAS independent); type: cell-based, human
NRAS in Cal-62 cells = NRAS in Cal-62 cells (Homo sapiens, UniProt P01111); test: Western blot of NRAS levels in Cal-62 cells
[3] = molecular target: T3, KRAS^G12R in Cal-62 cells (Homo sapiens, UniProt P01116, G12R); test: Endogenous KRAS degradation by Western blot in Cal-62 cells; type: cell-based; settings: Cal-62 (G12R)
T3 construct: Potent degradation of endogenous KRAS^G12R was achieved by ACBI4 in the Cal-62 cell line; host or cells: Cal-62

[4] = molecular target: T4, HiBiT-KRAS^G12R in Cal-62 cells (Homo sapiens, UniProt P01116, G12R); test: Kinetic degradation (live mode), Cal-62 HiBiT KRAS^G12R cells; type: cell-based; settings: Cal62-HiBit (G12R)
T4 construct: generated a HiBiT-KRAS^G12R Cal-62 knock-in cell line using the CRISPR Cas9 technology; endogenous in cells; host or cells: Cal-62 HiBiT KRAS G12R (in-house CRISPR knock-in)

[5] = molecular target: T4, HiBiT-KRAS^G12R in Cal-62 cells; test: HiBiT degradation assay, HiBiT-KRAS^G12R Cal-62 cells; type: cell-based; settings: Cal-62 (HiBitG12R)
Experimental: (Gibco) with 10% FBS in a humidiﬁed cell incubator at 37 °C and 5% CO2.
Plasmids pSpCas9 BB-2A-GFP (PX458) containing gRNA, Cas9 and GFP sequences and […] plasmid containing ssDNA donor template were purchased from Genscript. Cal-62 cells were plated at 5x10^5 cells in a 6-well plate and left to adhere overnight. The next day, the transfection plasmids (0.5 µg of each gRNA plasmid and 0.5 µg of donor template) were diluted in Opti-MEM, combined with Lipofectamine solution in Opti-mem according to the manufacturer’s protocol and incubated for 20 min at RT. The mixture was added to the cells and incubated for 24 h. The next day the media was exchanged, and the cells were left to incubate for another 24 h. GFP positive cells were single-cell sorted into 96-well plates using ﬂuorescence-activated cell sorting (FACS) at the Flow Cytometry and Cell Sorting Facility (University of Dundee). Sorted cells were left to grow in conditioned media supplemented with 20% FBS for 3 weeks. Formed colonies were tested for the expression of HiBiT KRAS using the Nano-Glo® HiBiT Lytic system (Promega). The positive clones were additionally tested for insertion of the HiBiT tag by western blotting for KRAS (mouse anti-KRAS, LsBio) and HiBiT (mouse anti-HiBiT, Promega) and the insert was further conﬁrmed by Sanger sequencing. […]
gRNA1: 5’ […] 3’, gRNA2: 5’ […] 3’, gRNA 3: 5’ […]
template DNA: 5’ caatccagctt tatttgacac tcattctctc aactctcatc tgattcttac tgttaatatt tatccaagag aactactgcc atgatgcttt aaaagttttt ctgtagctgt tgcatattga cttctaacac ttagaggtgg gggtccacta ggaaaactgt aacaataaga gtggagatag ctgtcagcaa cttttgtgag ggtgtgctac agggtgtaga gcactgtgaa gtctctacat gagtgaagtc atgatatgat cctttgagag cctttagccg ccgcagaaca gcagtctggc tatttagata gaacaacttg attttaagat aaaagaactg tctatgtagc atttatgcat ttttcttaag cgtcgatgga ggagtttgta aatgaagtac agttcattac gatacacgtc tgcagtcaac tggaattttc atgattgaat tttgtaaggt attttgaaat aatttttcat ataaaggtga gtttgtatta aaaggtactg gtggagtatt tgatagtgta ttaaccttat gtgtgacatg ttctaatata gtcacatttt cattattttt attataaggc ctgctgaaa […]
atg[…]act gaGtaCaaGctCgtAgtagttggag ctCgtggc gta ggc aag agt gcc ttA acAatCcaActaattcagaatcat tttgtggacg aatatgatcc aacaatagag gtaaatcttg ttttaatatg catattactg gtgcaggacc attctttgat acagataaag gtttctctga ccattttcat gagtacttat tacaagataa ttatgctgaa agttaagtta tctgaaatgt accttgggtt tcaagttata tgtaaccatt aatatgggaa ctttactttc cttgggagta tgtcagggtc catgatgttc actctctgtg cattttgatt ggaagtgtat ttcagagttt cgtgagaggg tagaaatttg tatcctatct ggacctaaaa gacaatcttt ttattgtaac ttttattttt atgggtttct tggtattgtg acatcatatg taaaggttag atttaattgt actagtgaaa tataattgtt tgatggttga tttttttaaa cttcatcagc agtattttcc tatcttcttc tcaacattag agaacctaca actaccggat aaattttaca aaatgaatta tttgcctaag gtgtggttta tataaaggta ctattaccaa ctttaccttt gctttgttgt catttttaaa tttactcaag gaaatactag gatttaaaaa aaaattcctt 3’
Degradation via Detection of Split Nanoluciferase (HiBiT)
To assess PROTAC-mediated degradation of HiBiT-tagged KRAS constructs, cells were seeded at […]
further incubated at 37 °C for 4 and 24 h. Following incubation, 20 µL per well of Promega Nano-Glo® HiBiT lytic detection reagent mix (Promega Nano-Glo® HiBiT Lytic Detection System […]
plotted as percent of DMSO control.

[6] = molecular target: T5, KRAS^Q61K in Calu-6 cells (Homo sapiens, UniProt P01116, Q61K); test: Endogenous KRAS degradation by Western blot in Calu-6 cells; type: cell-based; settings: Calu-6 (Q61K)
T5 construct: host or cells: Calu-6

HRAS in Cal-62 cells = HRAS in Cal-62 cells (Homo sapiens, UniProt P01112); test: Western blot of HRAS levels in Cal-62 cells
Cal-62 cells [7] = test: CellTiter-Glo anti-proliferation, Cal-62; type: cell-based, human; settings: Homo sapiens, 72 h; Cal-62 (G12R); read-out: CTG 72h Ic50
KRAS^G12D in GP5d cells = molecular target: T6, KRAS^G12D in GP5d cells (Homo sapiens, UniProt P01116, G12D); test: Endogenous KRAS degradation by Western blot in GP5d cells; type: cell-based
T6 construct: comparison of the degradative effect on endogenous KRAS; host or cells: GP5d

[8] = test system: HiBiT-tagged KRAS mutants in GP5d cells; test: Degradation of retrovirally transduced HiBiT-tagged KRAS mutants in GP5d cells; type: cell-based, human; settings: 18 h
KRAS^Q61L in SW948 cells = molecular target: T7, KRAS^Q61L in SW948 cells (Homo sapiens, UniProt P01116, Q61L); test: Endogenous KRAS degradation by Western blot in SW948 cells; type: cell-based
T7 construct: host or cells: SW948

Chain of HRAS in Cal-62 cells (P01112 whole entry): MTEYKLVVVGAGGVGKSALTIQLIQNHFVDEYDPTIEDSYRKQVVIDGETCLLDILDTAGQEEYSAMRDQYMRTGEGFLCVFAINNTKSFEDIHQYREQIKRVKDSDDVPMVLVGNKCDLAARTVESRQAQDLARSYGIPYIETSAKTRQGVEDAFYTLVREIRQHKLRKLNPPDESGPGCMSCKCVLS
Chain of NRAS in Cal-62 cells (P01111 whole entry): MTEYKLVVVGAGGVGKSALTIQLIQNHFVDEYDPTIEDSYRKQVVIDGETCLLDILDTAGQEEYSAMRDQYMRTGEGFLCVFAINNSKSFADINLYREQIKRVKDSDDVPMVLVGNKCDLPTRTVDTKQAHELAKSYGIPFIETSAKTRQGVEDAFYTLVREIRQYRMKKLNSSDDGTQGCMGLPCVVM

Dmax ([2]; 4 h, read-out: DMax 4h): 84%
DC50 ([2]; 4 h, read-out: Dc50 4h): 9 nM
Dmax ([2]; 24 h, read-out: DMax 24h): 93%
DC50 ([2]; 24 h, read-out: Dc50 24h): 2 nM
Dmax (KRAS^G12R in KP-2 cells; 4 h, read-out: DMax 4h): 91%
DC50 (KRAS^G12R in KP-2 cells; 4 h, read-out: Dc50 4h): 316 nM
Dmax (KRAS^G12R in KP-2 cells; 18 h, read-out: DMax 18h): 82%
DC50 (KRAS^G12R in KP-2 cells; 18 h, read-out: Dc50 18h): 151 nM
pIC50 (A375 cells; Homo sapiens, A-375, 144 h, A375 (KRAS WT; KRAS independent), read-out: CTG 144h Ic50): < 5.52
Dmax ([3]; 4 h, read-out: DMax 4h): 88%
DC50 ([3]; 4 h, read-out: Dc50 4h): 382 nM
Dmax ([3]; 18 h, read-out: DMax 18h): 93%
DC50 ([3]; 18 h, read-out: Dc50 18h): 162 nM
1/K (Tau) [4]: 0.689 µM
Plateau (degradation rate) [4]: 0.2774 min⁻¹
Plateu/ Tau [4]: 6708 M⁻¹ s⁻¹
Dmax ([5]; 4 h, read-out: DMax 4h): 80%
DC50 ([5]; 4 h, read-out: Dc50 4h): 80 nM
Dmax ([5]; 24 h, read-out: DMax 24h): 87%
DC50 ([5]; 24 h, read-out: Dc50 24h): 205 nM
Dmax ([6]; 4 h, read-out: DMax 4h): 34%
DC50 ([6]; 4 h, read-out: Dc50 4h): 274 nM
Dmax ([6]; 18 h, read-out: DMax 18h): 68%
DC50 ([6]; 18 h, read-out: Dc50 18h): 157 nM
Dmax (HRAS in Cal-62 cells; CAL-62, read-out: HRAS Dmax): 72%
window of HRAS degradation over KRAS degradation (HRAS in Cal-62 cells; Cal-62, DC50 637 nM vs 382 nM): ca. 2 fold
DC50 (HRAS in Cal-62 cells; read-out: HRAS DC50, Cal-62 cells, 4 h, Western blot): 637 nM
Dmax (KRAS^G12D in GP5d cells; 4 h, read-out: DMax 4h): 96.5%
DC50 (KRAS^G12D in GP5d cells; 4 h, read-out: Dc50 4h): 7 nM
Dmax (KRAS^G12D in GP5d cells; 18 h, read-out: DMax 18h): 99%
DC50 (KRAS^G12D in GP5d cells; 18 h, read-out: Dc50 18h): 7 nM
Dmax (KRAS^Q61L in SW948 cells; 4 h, read-out: DMax 4h): 58%
DC50 (KRAS^Q61L in SW948 cells; 4 h, read-out: Dc50 4h): 300 nM
Dmax (KRAS^Q61L in SW948 cells; 18 h, read-out: DMax 18h): 65%
DC50 (KRAS^Q61L in SW948 cells; 18 h, read-out: Dc50 18h): 1000 nM
SMILES: CC(C)C(C(=O)N1CC(O)CC1C(=O)NCc1ccc2cnn(C)c2c1)n1nnc2c1CCC(CCCN1CCCN(c3nccc(-c4noc(C5(C)CCCc6sc(N)c(C#N)c65)n4)n3)C(C)C1)C2 (stereo not drawn) [ACBI4]
Log2 Difference CDKN1C (Cal-62 cells [1]; ACBI4/DMSO): 1.09
Log2 Difference FOSL1 (Cal-62 cells [1]; ACBI4/DMSO): -0.93
Log2 Difference G0S2 (Cal-62 cells [1]; ACBI4/DMSO): -1.35
Log2 Difference KRAS (Cal-62 cells [1]; ACBI4/DMSO): -0.94
Log2 Difference NRAS (Cal-62 cells [1]; ACBI4/DMSO): -1.86
Log2 Difference RHOB (Cal-62 cells [1]; ACBI4/DMSO): 2.12
Log2 Difference CDKN1C (Cal-62 cells [1]; ACBI4/Neg Ctr): 1.24
Log2 Difference FOSL1 (Cal-62 cells [1]; ACBI4/Neg Ctr): -0.7
Log2 Difference G0S2 (Cal-62 cells [1]; ACBI4/Neg Ctr): -1.11
Log2 Difference KRAS (Cal-62 cells [1]; ACBI4/Neg Ctr): -0.79
Log2 Difference NRAS (Cal-62 cells [1]; ACBI4/Neg Ctr): -1.48
Log2 Difference PLAU (Cal-62 cells [1]; ACBI4/Neg Ctr): -0.73
Log2 Difference RHOB (Cal-62 cells [1]; ACBI4/Neg Ctr): 2.07
Log2 Difference TSPYL4 (Cal-62 cells [1]; ACBI4/Neg Ctr): 0.96
CTG 72h Ic50 (Calu-6 cells): unstable
antiproliferative effect (in words) (A375 cells; KRAS-independent A375 cell line): No antiproliferation; also recorded: No antiproliferative effect was observed
NRAS degradation (NRAS in Cal-62 cells): degradation of NRAS only at very high concentrations
pIC50 (Cal-62 cells [7]): 6.76
degradation of HiBiT-tagged KRAS mutant panel (in words) [8]: induce the degradation of all KRAS alleles
